Measured values taken from patent US11767303B2, “Compounds and methods for inhibiting viral replication and methods of treating and preventing flaviviral infections” (priority 2020, dated 2023).
“Also recorded” adds a separate entry of the source.

What was measured:
[1] = Pharmacokinetics in B6 mice after oral gavage; settings: B6 mice, single oral dose 40 mg/kg, plasma
Text: Pharmacokinetics. […] Fan et al., “Contributions of Hepatic and Intestinal Metabolism to the Disposition of Niclosamide, a Repurposed Drug with Poor Bioavailability,” Drug Metab. Dispos. 47:756-763 (2019), which is hereby incorporated by reference in its entirety. […] Student's t-test was used. P values<0.05 were considered statistically significant.

ZIKV PRVABC59 = assay: ZIKV viremia mouse model (A129 mice); assay type: in vivo; settings: 20 mg/kg/day oral gavage, day 3 post-infection, vs vehicle
Procedure: In vivo protection efficacy. All animal studies involving infectious ZIKV were conducted at an Animal Biosafety Level 2 (ABSL-2) facility at the Wadsworth Center with Institutional Biosafety and Animal Welfare Committee approval.
A group of four-week-old A129 mice were infected by subcutaneous injection with 1.7×10^5 PFU of the PRVABC59 strain. […] Mice were observed daily for signs of illness and mortality. Viremia on day 3 post-infection (pi) was determined by plaque forming assay, and statistical analysis was performed using the unpaired, two-tailed t-test (Prism).
Finally, the in vivo antiviral efficacy was evaluated using a viremia mouse model, as described previously. Zhang et al., “Characterization of the Contemporary Zika Virus in Immunocompetent Mice,” Hum. Vaccines Immunother. 12:3107-3109 (2016) and Larocca et al., “Vaccine Protection Against Zika Virus From Brazil,” Nature 536:474-478 (2016), both of which are hereby incorporated by reference in their entirety.

[2] = system: ZIKV strain PRVABC59 or ZIKV-Venus; assay: ZIKV infection of 3D mini-brain organoids; assay type: cell-based, Zika virus; settings: 1.5 μM
Text: (§1) Culturing of human iPSCs. Human iPSC F11350.1 culture was maintained in feed-free conditions using mTeSR1 medium (StemCell Technologies #85851) with 5× supplement (StemCell Technologies #85852). Cells were maintained on six-well plates coated with human embryonic stem cell-qualified Matrigel at a 1:60 dilution (Corning Catalog #354277) and passaged with ReLeSR (StemCell Technologies #05872). Cortical 3D organoids were generated based on the protocol described by Yoon et al. Yoon et al., “Reliability of Human Cortical Organoid Generation,” Nat. Methods. […] Briefly, iPSCs were dissociated with accutase (ThermoFisher #A1110501) and then plated at a density of 3×10^6 cells per well in AggreWell 800 24-well plate (StemCell Technologies #34811) in Essential 8™ medium (ThermoFisher #A1517001) supplemented with 10 μM rock inhibitor (Tocris #Y27632). The plate was centrifuged at 100×g for 3 min and incubated at 37° C. overnight. […]
To evaluate if JMX0207 protects organoids from ZIKV infections, a full-length infectious ZIKV clone expressing Venus fluorescent protein (ZIKV-Venus) was first generated. […] ZIKV infection was quantified by a plaque forming unit (PFU) assay at 5 dpi and by fluorescence imaging at 7 dpi, respectively. […]

3D organoids = assay: Toxic effect on 3D organoids; assay type: cell-based, human; settings: 1.5 μM
Text: as §1
To evaluate if JMX0207 protects organoids from ZIKV infections, a full-length infectious ZIKV clone expressing Venus fluorescent protein (ZIKV-Venus) was first generated. […] ZIKV infection was quantified by a plaque forming unit (PFU) assay at 5 dpi and by fluorescence imaging at 7 dpi, respectively.

[3] = not told

For `O=C(Nc1ccc([N+](=O)[O-])cc1Cl)c1cccc([N+](=O)[O-])c1O` [JMX0207, N-(2-Chloro-4-nitrophenyl)-2-hydroxy-3-nitrobenzamide], the “AUC0→∞ ± S.D.” value [1] was 2719 ± 1018, the “Tmax ± S.D.” value [1] was 1.2 ± 0.5 h and the “T1/2 ± S.D.” value ([1]; 40 mg/kg) was 11 ± 6.8 h. The Cmax ([1]; read-out: Cmax ± S.D.) was 145 µM, the ZIKV-induced viremia (ZIKV PRVABC59) was “significant reduction in ZIKV-induced viremia” and the “ZIKV infection of 3D organoid” value ([2]; MOI 1, imaging/immunostaining) was “completely abolished ZIKV infection; also recorded: nearly completely protected the organoids from ZIKV infection”. For the same molecule, the “ZIKV production from 3D organoids” value ([2]; PFU assay at 5 dpi) was “ZIKV production was also significantly inhibited”, the “toxic effect on the 3D organoids” value (3D organoids) was “did not have any toxic effect” and the “Perme. (cell permeability)” value [3] was 1.3 ×10⁻⁶ cm/s.
